From patent US20220249819A1, “MICRONEEDLES, AND METHODS FOR THE MANUFACTURE THEREOF” (UNIVERSITY COLLEGE CORK - NATIONAL UNIVERSITY OF IRELAND, …, priority 2019, published 2022)

Key:
Type in all cases: physicochemical
[1] = Ability to form a glassy, amorphous form following heat-melting and cooling (XRD)
Experimental: As used herein, the term “meltable drug” or “meltable active pharmaceutical ingredient” refers to an active pharmaceutical ingredient that can be heat-melted to a molten form and has the following properties: • solid at 25° C.; • ability to form a glassy, amorphous form following heat-melting and cooling; and • the amorphous form having a glass transition temperature typically greater than 25° C. Examples of meltable drugs include; antifungals (for example, Itraconazole, Clotrimazole, Ketoconazole, Fluconazole, or derivatives or variants thereof), corticosteroids (for example, Estradiol, betamethasone valerate or derivatives or variants thereof), Anti-inflammatory drugs (for example, Celecoxib, Diclofenac, Sulindac, Indomethacin), Antimicrobials and Antibiotics (for example, Cefuroxime […], Chloramphenicol or derivatives or variants thereof), Cardiovascular and Antihypertensives (Carvedilol, Nifedipine or derivatives or variants thereof), Autonomic nervous system and Psychiatrics medications (Droperidol or derivatives or variants thereof), Antilipidemic and Cholesterol medications (Probucol, Simvastatin or derivatives or variants thereof), Gastrointestinal medications (Famotidine, Omeprazole or derivatives or variants thereof), Respiratory medications, Endocrine medications, Immunomodulators, Oncology drugs, Renal medications, Neurologic medications and anti-migraine (Zolmitriptan or derivatives or variants thereof). Typically, the meltable drug forms a stable amorphous form following melting and cooling; in this context, the formation of amorphous structure is confirmed by the XRD technique. X-ray powder Diffraction (XRD) is an analytical technique primarily used for phase identification of a crystalline material, in which the crystalline structure causes a beam of incident X-rays to diffract into many specific directions. It works best for materials that are crystalline or partially crystalline (i.e., that have periodic structural order) but is also used to study non-crystalline materials FIG. 3.

[2] = Glass transition temperature (Tg) of meltable drug in amorphous form by Differential Scanning calorimetry (DSC)
Source text: (§1) The meltable active pharmaceutical ingredient forms a stable amorphous form following melting and cooling; in this context, the term “stable” as applied to the amorphous form means that the thermodynamic tendency of the active pharmaceutical ingredient to crystallize over one year is resisted. […] In this context, minimal degradation means that at least 90% of the active pharmaceutical ingredient retains its therapeutic activity following melting and cooling. […] Also, analysis of ^1H and ^13C NMR confirmed the chemical structure of ITZ, with molecular formula C35H38Cl2N8O4. […] Which indicating the chemical stability of both ITZ melts (FIG. 5). Differential Scanning calorimetry (DSC) may be employed to determine the glass transition temperature (Tg) of a meltable drug in amorphous form DSC utilizes a heat flow technique and compares the amount of heat supplied to the test sample and a similarly heated “reference” to determine transition points. Tg is typically calculated by using a half-height technique in the transition region FIG. 6.

[3] = Chemical stability before and after melting for microneedle fabrication (LC-MS, 1H and 13C NMR)
Source text: as §1

SMILES	GLASSY AND AMORPHOPUS FORM [1]	GLASS TRANSITION TEMP (TG ° C.) [2] [°C]	chemical stability of melts (1H and 13C NMR difference versus unmelted ITZ) [3]	stability before and after melting (LC-MS fragmentation pattern) ([3]; LC-MS, ITZ vs ITZ melt)
CCCCC(=O)O[C@]1(C(=O)CO)[C@@H](C)C[C@H]2[C@@H]3CCC4=CC(=O)C=C[C@]4(C)[C@@]3(F)[C@@H](O)C[C@@]21C [Betamethazone valerate]	YES	54		
Clc1ccccc1C(c1ccccc1)(c1ccccc1)n1ccnc1 [Clotrimazole]	YES	32		
O=C(O)Cc1ccccc1Nc1c(Cl)cccc1Cl [Diclofenac]	YES	53		
OC(Cn1cncn1)(Cn1cncn1)c1ccc(F)cc1F [Fluconazole]	YES	32		
CCC(C)n1ncn(-c2ccc(N3CCN(c4ccc(OCC5COC(Cn6cncn6)(c6ccc(Cl)cc6Cl)O5)cc4)CC3)cc2)c1=O (centres unmarked) [ITZ melt1]			No difference	
CCC(C)n1ncn(-c2ccc(N3CCN(c4ccc(OCC5COC(Cn6cncn6)(c6ccc(Cl)cc6Cl)O5)cc4)CC3)cc2)c1=O (centres unmarked) [ITZ melt2]			No difference	
COc1ccc2c(c1)c(CC(=O)O)c(C)n2C(=O)c1ccc(Cl)cc1 [Indomethacin]	YES	45		
CCC(C)n1ncn(-c2ccc(N3CCN(c4ccc(OCC5COC(Cn6cncn6)(c6ccc(Cl)cc6Cl)O5)cc4)CC3)cc2)c1=O (centres unmarked) [Itraconazole]				high stability
CC(=O)N1CCN(c2ccc(OCC3COC(Cn4ccnc4)(c4ccc(Cl)cc4Cl)O3)cc2)CC1 (centres unmarked) [Ketoconazole]	YES	46		
CC1=C(CC(=O)O)c2cc(F)ccc2/C1=C\c1ccc([S+](C)[O-])cc1 (centres unmarked) [Sulindac]	YES	75		
